From ChEMBL document CHEMBL2034937, “Novel 3-Oxazolidinedione-6-aryl-pyridinones as Potent, Selective, and Orally Active EP3 Receptor Antagonists” (ACS Med Chem Lett, 2010)

Assays:
[1] = Drug metabolism in human liver S9 fraction assessed as NADPH-dependent glutathione conjugate level at 10 uM after 30 mins by LC-MS/MS analysis; type: ADME, subcellular; conditions: s9, 0.5 h
[2] = biological target: T1, Prostaglandin E2 receptor EP3 subtype (Rattus norvegicus, UniProt P34980); assay: Antagonist activity at rat EP3 receptor expressed in human U2OS cells co-expressing Gqi5 assessed as inhibition of PGE2-induced response after 24 hrs by FLIPR assay; type: functional, cell-based
T1 sequence (P34980 whole entry): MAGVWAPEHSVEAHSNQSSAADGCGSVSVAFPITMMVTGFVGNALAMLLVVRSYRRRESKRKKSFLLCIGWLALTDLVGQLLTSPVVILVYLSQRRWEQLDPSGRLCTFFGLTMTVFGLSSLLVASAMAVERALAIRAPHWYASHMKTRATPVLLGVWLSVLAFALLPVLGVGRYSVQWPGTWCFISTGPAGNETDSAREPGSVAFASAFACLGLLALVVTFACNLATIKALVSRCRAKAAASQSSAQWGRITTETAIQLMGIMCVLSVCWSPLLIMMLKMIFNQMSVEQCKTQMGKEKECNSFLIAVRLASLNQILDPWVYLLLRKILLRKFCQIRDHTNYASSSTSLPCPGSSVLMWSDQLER

[3] = Drug metabolism in rat liver S9 fraction assessed as NADPH-dependent glutathione conjugate level at 10 uM after 30 mins by LC-MS/MS analysis; type: ADME, subcellular; conditions: s9, 0.5 h
Rattus norvegicus = assay: Dose-normalized AUC in Sprague-Dawley rat at 2 mg/kg, po; type: ADME, organism-based; set-up: dose 2 mg/kg, route oral; conditions: in vivo
[4] = Half life in Sprague-Dawley rat at 1 mg/kg, iv; type: ADME, organism-based; set-up: dose 1 mg/kg, route intravenous; conditions: in vivo
[5] = Clearance in Sprague-Dawley rat at 1 mg/kg, iv and 2 mg/kg, po; type: ADME, organism-based; conditions: in vivo
[6] = Drug metabolism in rat liver S9 fraction assessed as glutathione conjugate level at 10 uM after 30 mins by HPLC in absence of NADPH; type: ADME, subcellular; conditions: s9, 0.5 h
[7] = biological target: T2, Prostaglandin E2 receptor EP3 subtype (Homo sapiens, UniProt P43115); assay: Antagonist activity at human EP3c receptor expressed in human U2OS cells assessed as inhibition of PGE2-induced calcium mobilization after 24 hrs by FLIPR assay; type: functional, cell-based
T2 sequence (P43115 whole entry): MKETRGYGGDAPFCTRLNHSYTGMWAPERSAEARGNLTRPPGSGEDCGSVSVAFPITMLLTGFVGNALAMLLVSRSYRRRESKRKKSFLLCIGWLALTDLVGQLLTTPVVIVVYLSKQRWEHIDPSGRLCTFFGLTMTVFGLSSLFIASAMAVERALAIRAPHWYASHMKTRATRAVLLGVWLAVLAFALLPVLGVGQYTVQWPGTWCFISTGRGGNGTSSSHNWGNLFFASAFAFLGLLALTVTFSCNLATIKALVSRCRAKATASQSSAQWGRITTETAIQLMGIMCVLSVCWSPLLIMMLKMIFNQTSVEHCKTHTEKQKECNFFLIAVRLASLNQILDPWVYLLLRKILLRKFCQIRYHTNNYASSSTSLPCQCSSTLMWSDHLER

[8] = Oral bioavailability in Sprague-Dawley rat at 2 mg/kg; type: ADME, organism-based; conditions: in vivo
[9] = Drug metabolism in human liver S9 fraction assessed as glutathione conjugate level at 10 uM after 30 mins by HPLC in absence of NADPH; type: ADME, subcellular; conditions: s9, 0.5 h

- Drug metabolism [1]: Not Active
- Ki [2]: 7.94 nM
- Drug metabolism [3]: Not Active
- AUC/dose (Rattus norvegicus): 3 µg·h/mL/mg/kg
- half-life [4]: 4.2 h
- clearance [5]: 4.5 mL/min/kg
- Drug metabolism [6]: Not Active
- Ki [7]: 6.31 nM
- bioavailability [8]: 80%
- Drug metabolism [9]: Not Active
SMILES: CC(C)C1(c2ccc(-c3ccc4c(ccn4C)c3)[nH]c2=O)OC(=O)NC1=O (stereo not given)
